Laboratory results reported in PubChem BioAssay AID330 (DTP/NCI, 2004).
Several values for one entry are separate records, joined by “and”; a condition that tells them apart may be missing. Equal values may be shown once. Inconclusive results and toxic doses are left out. Rule for the calls: active = survival T/C of 150% or more; inactive = T/C below 125% in these data.

Tested on: P388 leukemia ip, CD2F1 mice, survival T/C
Experiment: NCI In Vivo Anticancer Drug Screen. Data for tumor model P388 Leukemia (intraperitoneal) in CD2F1 (CDF1) mice
Settings: endpoint: median survival time, higher = longer survival
How it was run: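 Mice carrying the transplanted tumor received test compound or vehicle. Survival was recorded in each group, and the value is the treated-group measurement divided by that of the vehicle-treated control group.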

[1] = dose: 50.0 mg/kg/injection, schedule: Q01DX009 (ip), vehicle: Klucel (hydroxypropylcellulose) (HPC)
[2] = dose: 100.0 mg/kg/injection, schedule: Q01DX009 (ip), vehicle: Klucel (hydroxypropylcellulose) (HPC)
[3] = dose: 200.0 mg/kg/injection, schedule: Q01DX009 (ip), vehicle: Klucel (hydroxypropylcellulose) (HPC)
[4] = dose: 400.0 mg/kg/injection, schedule: Q01DX009 (ip), vehicle: Klucel (hydroxypropylcellulose) (HPC)
[5] = dose: 12.5 mg/kg/injection, schedule: Q01DX009 (ip), vehicle: saline with Tween-80
[6] = dose: 50.0 mg/kg/injection, schedule: Q01DX009 (ip), vehicle: saline with Tween-80
[7] = dose: 50.0 mg/kg/injection, schedule: Q01DX005 (ip), vehicle: Klucel (hydroxypropylcellulose) (HPC)
[8] = dose: 100.0 mg/kg/injection, schedule: Q01DX005 (ip), vehicle: Klucel (hydroxypropylcellulose) (HPC)
[9] = dose: 200.0 mg/kg/injection, schedule: Q01DX005 (ip), vehicle: Klucel (hydroxypropylcellulose) (HPC)
[10] = dose: 100.0 mg/kg/injection, schedule: Q01DX001 (ip), vehicle: Klucel (hydroxypropylcellulose) (HPC)
[11] = dose: 200.0 mg/kg/injection, schedule: Q01DX001 (ip), vehicle: Klucel (hydroxypropylcellulose) (HPC)
[12] = dose: 400.0 mg/kg/injection, schedule: Q01DX001 (ip), vehicle: Klucel (hydroxypropylcellulose) (HPC)
[13] = dose: 60.0 mg/kg/injection, schedule: Q01DX005 (ip), vehicle: saline with Tween-80
[14] = dose: 120.0 mg/kg/injection, schedule: Q01DX005 (ip), vehicle: saline with Tween-80
[15] = dose: 12.5 mg/kg/injection, schedule: Q01DX009 (ip), vehicle: saline
[16] = dose: 25.0 mg/kg/injection, schedule: Q01DX009 (ip), vehicle: saline
[17] = dose: 100.0 mg/kg/injection, schedule: Q04DX002 (ip), vehicle: saline with Tween-80
[18] = dose: 200.0 mg/kg/injection, schedule: Q04DX002 (ip), vehicle: saline with Tween-80
[19] = dose: 100.0 mg/kg/injection, schedule: Q04DX003 (ip), vehicle: saline with Tween-80
[20] = dose: 200.0 mg/kg/injection, schedule: Q04DX003 (ip), vehicle: saline with Tween-80
[21] = dose: 400.0 mg/kg/injection, schedule: Q04DX003 (ip), vehicle: saline with Tween-80

Measured: T/C

Cc1ccc(Nc2ccc(Nc3ccc(C)cc3)c3c2C(=O)c2cc(Cl)c(Cl)cc2C3=O)cc1
inactive: [1] 101 % of control and 93 % of control and 95 % of control | [2] 111 % of control and 89 % of control and 96 % of control | [3] 103 % of control and 105 % of control | [4] 98 % of control

COc1ccc(/C=N/N2CN(C(C)C(=O)O)B(N(CCO)CCO)N=C2N)cc1OC (stereo not given)
inactive: dose: 60.0 mg/kg/injection, schedule: Q01DX005 (ip), vehicle: saline 104 % of control | dose: 120.0 mg/kg/injection, schedule: Q01DX005 (ip), vehicle: saline 107 % of control | dose: 240.0 mg/kg/injection, schedule: Q01DX005 (ip), vehicle: saline 107 % of control

COC(=O)c1ncn(CCCO)c1O
inactive: dose: 100.0 mg/kg/injection, schedule: Q01DX001 (ip), vehicle: saline 92 % of control | dose: 200.0 mg/kg/injection, schedule: Q01DX001 (ip), vehicle: saline 100 % of control | dose: 400.0 mg/kg/injection, schedule: Q01DX001 (ip), vehicle: saline 104 % of control

CN(C)c1ccc2ccc(N(C)C)nc2c1
inactive: [5] 93 % of control | dose: 25.0 mg/kg/injection, schedule: Q01DX009 (ip), vehicle: saline with Tween-80 117 % of control | [6] 89 % of control and 95 % of control

O=C(Nc1ccc(Br)cc1)c1ccc(Cl)c(Cl)c1
inactive: [2] 116 % of control | [3] 119 % of control | [4] 117 % of control

CN1C(=O)N(CCCl)C(=O)C(C)(C2=CCCCC2)C1=O (stereo not given)
inactive: [1] 92 % of control | [2] 92 % of control | [3] 90 % of control

CN(C)/[N+]([O-])=N/N1C(=O)c2ccccc2C1=O
inactive: [7] 101 % of control | [8] 105 % of control | [9] 101 % of control

CN1C(c2ccccc2)C2CSCC(C1c1ccccc1)C21NC(=O)NC1=O (stereo not given)
inactive: dose: 100.0 mg/kg/injection, schedule: Q01DX001 (ip), vehicle: saline with Tween-80 104 % of control | dose: 200.0 mg/kg/injection, schedule: Q01DX001 (ip), vehicle: saline with Tween-80 100 % of control | dose: 400.0 mg/kg/injection, schedule: Q01DX001 (ip), vehicle: saline with Tween-80 97 % of control

CC1=C(C)CC2C(=O)c3c(c(O)c4ccccc4c3Cl)C(=O)C2C1 (stereo not given)
inactive: dose: 50.0 mg/kg/injection, schedule: Q01DX001 (ip), vehicle: Klucel (hydroxypropylcellulose) (HPC) 90 % of control | [10] 89 % of control | [11] 86 % of control and 90 % of control | [12] 92 % of control

Cc1onc(-c2c(F)cccc2Cl)c1C(=O)Nc1cc2cc([N+](=O)[O-])ccc2oc1=O
inactive: [13] 95 % of control | [14] 97 % of control | dose: 240.0 mg/kg/injection, schedule: Q01DX005 (ip), vehicle: saline with Tween-80 92 % of control

CN(C)CC(O)c1cc2ccccc2c2ccccc12 (stereo not given)
inactive: [15] 106 % of control | [16] 103 % of control | dose: 50.0 mg/kg/injection, schedule: Q01DX009 (ip), vehicle: saline 100 % of control

CC(=O)[O][Sn]([c]1ccccc1)([c]1ccccc1)[c]1ccccc1
inactive: dose: 0.25 mg/kg/injection, schedule: Q04DX003 (ip), vehicle: saline with Tween-80 104 % of control | dose: 0.5 mg/kg/injection, schedule: Q04DX003 (ip), vehicle: saline with Tween-80 109 % of control | dose: 125.0 micrograms/kg/injection, schedule: Q01DX009 (ip), vehicle: saline with Tween-80 100 % of control | dose: 250.0 micrograms/kg/injection, schedule: Q01DX009 (ip), vehicle: saline with Tween-80 109 % of control | dose: 500.0 micrograms/kg/injection, schedule: Q01DX009 (ip), vehicle: saline with Tween-80 109 % of control

CCCCCCCCCCCCCC[N+]1(CC)CCCCCC1
inactive: dose: 0.04 mg/kg/injection, schedule: Q01DX009 (ip), vehicle: saline 100 % of control and 96 % of control

COC(=O)Nc1nc2ccc(C(=O)OCC(C)C)cc2[nH]1
inactive: [17] 98 % of control | [18] 90 % of control

COc1ccc(C(=O)CC(C#N)c2ccc(OC)c(OC)c2)cc1OC (stereo not given)
inactive: [19] 90 % of control | [20] 86 % of control | [21] 86 % of control

NC12CC3CC(CC(C3)C1)C2
inactive: dose: 25.0 mg/kg/injection, schedule: Q01DX005 (ip), vehicle: saline with Tween-80 97 % of control | dose: 50.0 mg/kg/injection, schedule: Q01DX005 (ip), vehicle: saline with Tween-80 92 % of control | dose: 100.0 mg/kg/injection, schedule: Q01DX005 (ip), vehicle: saline with Tween-80 88 % of control

CC(=O)Nc1ncnc2c(C3OC(COC(C)=O)C(OC(C)=O)C3OC(C)=O)[nH]nc12 (stereo not given)
inactive: [13] 105 % of control | [14] 95 % of control

C1=C(OC(=Nc2ccccc2)N2CCOCC2)N=C(OC(=Nc2ccccc2)N2CCOCC2)/C1=C1\C=C(OC(=Nc2ccccc2)N2CCOCC2)N=C1OC(=Nc1ccccc1)N1CCOCC1
inactive: [10] 104 % of control | [11] 107 % of control | [12] 106 % of control

O=C1CSC(c2c(Cl)cccc2[N+](=O)[O-])N1c1nncs1 (stereo not given)
inactive: [17] 87 % of control | [18] 87 % of control | dose: 400.0 mg/kg/injection, schedule: Q04DX002 (ip), vehicle: saline with Tween-80 92 % of control

CC(C)(O)[C@@H]1CC(=O)[C@]2(C)[C@H](CC[C@@]3(C)C(c4ccoc4)OC(=O)[C@H]4O[C@]432)[C@@]1(C)/C=C/C(=O)O (stereo not given in full)
inactive: dose: 0.75 mg/kg/injection, schedule: Q01DX009 (ip), vehicle: saline + alcohol 98 % of control | dose: 1.5 mg/kg/injection, schedule: Q01DX009 (ip), vehicle: saline + alcohol 100 % of control | dose: 3.0 mg/kg/injection, schedule: Q01DX009 (ip), vehicle: saline + alcohol 97 % of control | dose: 6.0 mg/kg/injection, schedule: Q01DX009 (ip), vehicle: saline + alcohol 99 % of control

S=C([S][Sn]([c]1ccccc1)([c]1ccccc1)[c]1ccccc1)N1CCOCC1
inactive: dose: 1.56 mg/kg/injection, schedule: Q01DX009 (ip), vehicle: saline with Tween-80 100 % of control | dose: 3.13 mg/kg/injection, schedule: Q01DX009 (ip), vehicle: saline with Tween-80 100 % of control and 103 % of control and 109 % of control | dose: 6.25 mg/kg/injection, schedule: Q01DX009 (ip), vehicle: saline with Tween-80 107 % of control and 108 % of control | [5] 105 % of control

Cc1cc2ccc(OC(=O)c3ccc(N=C(N)N)cc3)cc2oc1=O
inactive: [19] 100 % of control | [20] 91 % of control | [21] 87 % of control

CNS(=O)(=O)c1ccc(Cl)cc1
inactive: dose: 3.13 mg/kg/injection, schedule: Q01DX009 (ip), vehicle: saline 94 % of control | dose: 6.25 mg/kg/injection, schedule: Q01DX009 (ip), vehicle: saline 99 % of control | [15] 98 % of control | [16] 98 % of control

Cl/C(=N\Nc1ccccc1)c1ccccc1
inactive: dose: 3.13 mg/kg/injection, schedule: Q01DX009 (ip), vehicle: Klucel (hydroxypropylcellulose) (HPC) 100 % of control | dose: 6.25 mg/kg/injection, schedule: Q01DX009 (ip), vehicle: Klucel (hydroxypropylcellulose) (HPC) 106 % of control | dose: 7.5 mg/kg/injection, schedule: Q01DX001 (ip), vehicle: saline sonified 109 % of control | dose: 12.5 mg/kg/injection, schedule: Q01DX009 (ip), vehicle: Klucel (hydroxypropylcellulose) (HPC) 104 % of control | dose: 15.0 mg/kg/injection, schedule: Q01DX001 (ip), vehicle: saline sonified 109 % of control | dose: 30.0 mg/kg/injection, schedule: Q01DX001 (ip), vehicle: saline sonified 109 % of control

CC1=N/C(=C\c2cccc(Br)c2)C(=O)O1
inactive: [7] 98 % of control | [8] 98 % of control | [9] 98 % of control

CN(C)CCOC1OCN(C)CC1(C)C (stereo not given)
inactive: [6] 104 % of control | dose: 100.0 mg/kg/injection, schedule: Q01DX009 (ip), vehicle: saline with Tween-80 111 % of control | dose: 200.0 mg/kg/injection, schedule: Q01DX009 (ip), vehicle: saline with Tween-80 110 % of control

C[N+]12OC3CCC(O)CC1CCCC2C3 (stereo not given)
inactive: dose: 100.0 mg/kg/injection, schedule: Q01DX001 (ip), vehicle: water 100 % of control
